Experimental data as given in patent US8574563B2 (Bristol-Myers Squibb Company, priority 2006, dated 2013).

tested on: HCV 1b-377-neo replicon cells; assay: HCV replicon assay, HCV 1b-377-neo replicon cells (1b FRET); type: cell-based, Hepatitis C virus genotype 1b; details: Hepatitis C virus, HCV 1b-377-neo replicon cells; HCV 1b genotype; read-out: EC50 range against HCV 1b (Table 2, Range)
Summary of the method: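 FRET-based replicon assay in HCV 1b-377-neo cells, including a comparison line carrying the NS5A Y2065H mutation that confers resistance to a reference compound.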

First: COC(=O)N[C@@H]1CC[C@H](C(=O)N2CCC[C@H]2c2ncc(-c3ccc(-c4ccc(-c5cnc([C@@H]6CCCN6C(=O)[C@@H](NC(=O)OC)[C@@H](C)OC)[nH]5)cc4)cc3)[nH]2)C1 [cj-86, methyl ((1R,3S)-3-(((2S)-2-(5-(4′-(2-((2S)-1-((2S)-3-methoxy-2-((methoxycarbonyl)amino)butanoyl)-2-pyrrolidinyl)-1H-imidazol-5-yl)-4-biphenylyl)-1H-imidazol-2-yl)-1-pyrrolidinyl)carbonyl)cyclopentyl)carbamate]
Second: COC(=O)N[C@H]1CCC[C@@H]1C(=O)N1CCC[C@H]1c1ncc(-c2ccc(-c3ccc(-c4cnc([C@@H]5CCCN5C(=O)[C@H]5CCC[C@@H]5NC(=O)OC)[nH]4)cc3)cc2)[nH]1 [cj-155, dimethyl (4,4′-biphenyldiylbis(1H-imidazole-5,2-diyl(2S)-2,1-pyrrolidinediylcarbonyl(1S,2S)-2,1-cyclopentanediyl))biscarbamate]
The EC50 of the first is lower: 0.001 to 0.999 nM for the first, 1 to 99 nM for the second.

First: CCN(CC)[C@@H](C(=O)N1CCC[C@H]1c1ncc(-c2ccc(-c3ccc(-c4cnc([C@@H]5CCCN5C(=O)[C@H](Cc5c[nH]nn5)NC(=O)OC)[nH]4)cc3)cc2)[nH]1)c1ccccc1 [cj-32, methyl ((1S)-2-((2S)-2-(5-(4′-(2-((2S)-1-((2R)-2-(diethylamino)-2-phenylacetyl)-2-pyrrolidinyl)-1H-imidazol-5-yl)-4-biphenylyl)-1H-imidazol-2-yl)-1-pyrrolidinyl)-2-oxo-1-(1H-1,2,3-triazol-4-ylmethyl)ethyl)carbamate]
Second: CCN(CC)[C@@H](C(=O)N1CCC[C@H]1c1ncc(-c2ccc(-c3ccc(-c4cnc([C@@H]5CCCN5C(=O)[C@@H](C)O)[nH]4)cc3)cc2)[nH]1)c1ccccc1 [Example M39, (2R)-1-((2S)-2-(5-(4′-(2-((2S)-1-((2R)-2-(diethylamino)-2-phenylacetyl)-2-pyrrolidinyl)-1H-imidazol-5-yl)-4-biphenylyl)-1H-imidazol-2-yl)-1-pyrrolidinyl)-1-oxo-2-propanol]
The EC50 of the first is lower: 0.001 to 0.999 nM for the first, 1 to 99 nM for the second. The first is the more potent here.

First: O=C(N[C@@H](C(=O)N1CCC[C@H]1c1ncc(-c2ccc(-c3ccc(-c4cnc([C@@H]5CCCN5C(=O)[C@H](NC(=O)N5CCOCC5)c5ccccc5)[nH]4)cc3)cc2)[nH]1)c1ccccc1)N1CCOCC1 [Example 25-6, N,N′-(4,4′-biphenyldiylbis(1H-imidazole-5,2-diyl(2S)-2,1-pyrrolidinediyl((1R)-2-oxo-1-phenyl-2,1-ethanediyl)))di(4-morpholinecarboxamide)]
Second: O=C(Nc1cccnc1)N[C@@H](C(=O)N1CCC[C@H]1c1ncc(-c2ccc(-c3ccc(-c4cnc([C@@H]5CCCN5C(=O)[C@H](NC(=O)Nc5cccnc5)c5ccccc5)[nH]4)cc3)cc2)[nH]1)c1ccccc1 [Example 25-8, N,N″-(4,4′-biphenyldiylbis(1H-imidazole-5,2-diyl(2S)-2,1-pyrrolidinediyl((1R)-2-oxo-1-phenyl-2,1-ethanediyl)))bis(3-(3-pyridinyl)urea)]
The EC50 of the first is higher: 1 to 99 nM for the first, 0.001 to 0.999 nM for the second.

Compared with `CCN(CC)[C@@H](C(=O)N1CCC[C@H]1c1ncc(-c2ccc(-c3ccc(-c4cnc([C@@H]5CCCN5C(=O)[C@H](NC(=O)OC)c5ccccc5)[nH]4)c(F)c3)cc2)[nH]1)c1ccccc1` [Example D37, methyl ((1R)-2-((2S)-2-(5-(4′-(2-((2S)-1-((2R)-2-(diethylamino)-2-phenylacelyl)-2-pyrrolidinyl)-1H-imidazol-5-yl)-3-fluoro-4-biphenylyl)-1H-imidazol-2-yl)-1-pyrrolidinyl)-2-oxo-1-phenylethyl)carbamate], `CC[C@H](C(=O)N1CCC[C@H]1c1ncc(-c2ccc(-c3ccc(-c4cnc([C@@H]5CCCN5C(=O)[C@H](NC(=O)OC)c5ccccc5)[nH]4)cc3)cc2)[nH]1)N(CC)CC` [Example M66x, methyl ((1R)-2-((2S)-2-(5-(4′-(2-((2S)-1-((2R)-2-(diethylamino)butanoyl)-2-pyrrolidinyl)-1H-imidazol-5-yl)-4-biphenylyl)-1H-imidazol-2-yl)-1-pyrrolidinyl)-2-oxo-1-phenylethyl)carbamate] is higher in EC50: 0.001 to 0.999 nM for the first, 1 to 99 nM for the second.

First: CC(=O)N[C@@H](C(=O)N1[C@@H]2C[C@@H]2C[C@H]1c1nc(-c2ccc(-c3ccc(-c4c[nH]c([C@@H]5C[C@H]6C[C@H]6N5C(=O)[C@H](NC(C)=O)C(C)C)n4)cc3)cc2)c[nH]1)C(C)C [Example M143, N-((1R)-1-(((1R,3S,5R)-3-(4-(4′-(2-((1R,3S,5R)-2-((2R)-2-acetamido-3-methylbutanoyl)-2-azabicyclo[3.1.0]hex-3-yl)-1H-imidazol-4-yl)-4-biphenylyl)-1H-imidazol-2-yl)-2-azabicyclo[3.1.0]hex-2-yl)carbonyl)-2-methylpropyl)acetamide]
Second: CCC(C)NCC(=O)N1CCC[C@H]1c1ncc(-c2ccc(-c3ccc(-c4cnc([C@@H]5CCCN5C(=O)[C@@H](NC(=O)OC)C(C)C)[nH]4)cc3)cc2)[nH]1 (stereo partly drawn) [LS24, methyl ((1S)-1-(((2S)-2-(5-(4′-(2-((2S)-1-(N-sec-butylglycyl)-2-pyrrolidinyl)-1H-imidazol-5-yl)-4-biphenylyl)-1H-imidazol-2-yl)-1-pyrrolidinyl)carbonyl)-2-methylpropyl)carbamate]
The EC50 of the first is higher: 1 to 99 nM for the first, 0.001 to 0.999 nM for the second. The second is the more potent here.

`COC(=O)N[C@@H](C(=O)N1CCC[C@H]1c1ncc(-c2ccc(-c3ccc(-c4cnc([C@@H]5CCCN5C(=O)c5ncco5)[nH]4)cc3)cc2)[nH]1)c1ccccc1` [Example 71, methyl ((1R)-2-((2S)-2-(5-(4′-(2-((2S)-1-(1,3-oxazol-2-ylcarbonyl)-2-pyrrolidinyl)-1H-imidazol-5-yl)-4-biphenylyl)-1H-imidazol-2-yl)-1-pyrrolidinyl)-2-oxo-1-phenylethyl)carbamate] and `COC(=O)N[C@@H](C(=O)N1CCC[C@H]1c1ncc(-c2ccc(-c3ccc(-c4cnc([C@@H]5CCCN5C(=O)[C@@H](Nc5ncccn5)C(C)C)[nH]4)cc3)cc2)[nH]1)c1ccccc1` [cj-11b, methyl ((1R)-2-oxo-1-phenyl-2-((2S)-2-(5-(4′-(2-((2S)-1-(N-2-pyrimidinyl-L-valyl)-2-pyrrolidinyl)-1H-imidazol-5-yl)-4-biphenylyl)-1H-imidazol-2-yl)-1-pyrrolidinyl)ethyl)carbamate] fall in the same range of EC50: 0.001 to 0.999 nM for the first, 0.001 to 0.999 nM for the second.

First: COC(=O)N[C@@H](C)C(=O)N1CCC[C@H]1c1ncc(-c2ccc(-c3ccc(-c4cnc([C@@H]5CCCN5[C@@](C)(C=O)NC(=O)OC)[nH]4)cc3)cc2)[nH]1 [Example M17, methyl ((1S)-1-((2S)-2-(5-(4′-(2-((2S)-1-(N-(methoxycarbonyl)-L-alanyl)-2-pyrrolidinyl)-1H-imidazol-5-yl)-4-biphenylyl)-1H-imidazol-2-yl)-1-pyrrolidinyl)-1-methyl-2-oxoethyl)carbamate]
Second: COC(=O)N[C@H](C(=O)N1CCC[C@H]1c1ncc(-c2ccc(-c3ccc(-c4cnc([C@@H]5CCCN5C(=O)[C@@H](NC(=O)OC)C5CC5)[nH]4)c(F)c3)cc2)[nH]1)C(C)C [Example D50, methyl ((1S)-1-cyclopropyl-2-((2S)-2-(5-(3-fluoro-4′-(2-((2S)-1-(N-(methoxycarbonyl)-L-valyl)-2-pyrrolidinyl)-1H-imidazol-5-yl)-4-biphenylyl)-1H-imidazol-2-yl)-1-pyrrolidinyl)-2-oxoethyl)carbamate]
The EC50 of the first is higher: 100 to 999 nM for the first, 0.001 to 0.999 nM for the second. The second is the more potent here.

`O=C(c1ccccc1F)N1CCC[C@H]1c1ncc(-c2ccc(-c3ccc(-c4cnc([C@@H]5CCCN5C(=O)[C@@H](c5ccccc5)N5CCCCC5)[nH]4)cc3)cc2)[nH]1` [Example 107-3, 1-((1R)-2-((2S)-2-(5-(4′-(2-((2S)-1-(2-fluorobenzoyl)-2-pyrrolidinyl)-1H-imidazol-5-yl)-4-biphenylyl)-1H-imidazol-2-yl)-1-pyrrolidinyl)-2-oxo-1-phenylethyl) piperidine] and `CN(C)[C@@H](C(=O)N1CCC[C@H]1c1ncc(-c2ccc(-c3ccc(-c4cnc([C@@H]5CCCN5C(=O)[C@@H](c5ccccc5)N5CCCCC5)[nH]4)cc3)cc2)[nH]1)c1ccccc1F` [Example 28-5, (1R)-1-(2-fluorophenyl)-N,N-dimethyl-2-oxo-2-((2S)-2-(5-(4′-(2-((2S)-1-((2R)-2-phenyl-2-(1-piperidinyl)acetyl)-2-pyrrolidinyl)-1H-imidazol-5-yl)-4-biphenylyl)-1H-imidazol-2-yl)-1-pyrrolidinyl)ethanamine] fall in the same range of EC50: 0.001 to 0.999 nM for the first, 0.001 to 0.999 nM for the second.

Compared with `CN(C)[C@@H](C(=O)N1CCC[C@H]1c1ncc(-c2ccc(-c3ccc(-c4cnc([C@@H]5CCCN5C(=O)c5ccccc5F)[nH]4)cc3)cc2)[nH]1)c1ccccc1` [Example 94-38, (1R)-2-((2S)-2-(5-(4′-(2-((2S)-1-(2-fluorobenzoyl)-2-pyrrolidinyl)-1H-imidazol-5-yl)-4-biphenylyl)-1H-imidazol-2-yl)-1-pyrrolidinyl)-N,N-dimethyl-2-oxo-1-phenylethanamine], `O=C(c1ccccc1)N1CCC[C@H]1c1ncc(-c2ccc(-c3ccc(-c4cnc([C@@H]5CCCN5C(=O)c5ccccc5)[nH]4)cc3)cc2)[nH]1` [Example 6, 5,5′-(4,4′-biphenyldiyl)bis(2-((2S)-1-benzoyl-2-pyrrolidinyl)-1H-imidazole)] is higher in EC50: 0.001 to 0.999 nM for the first, 1 to 99 nM for the second.

`COC(=O)N[C@@H](C(=O)N1CCC[C@H]1c1ncc(-c2ccc(-c3ccc(-c4cnc([C@@H]5CCCN5C(=O)CN5CCN(C)CC5)[nH]4)cc3)cc2)[nH]1)c1ccccc1` [Example 57, methyl ((1R)-2-((2S)-2-(5-(4′-(2-((2S)-1-((4-methyl-1-piperazinyl)acetyl)-2-pyrrolidinyl)-1H-imidazol-5-yl)-4-biphenylyl)-1H-imidazol-2-yl)-1-pyrrolidinyl)-2-oxo-1-phenylethyl)carbamate] and `CCN(CC)[C@@H](C(=O)N1CCC[C@H]1c1ncc(-c2ccc(-c3ccc(-c4cnc([C@@H]5CCCN5C(=O)[C@@H](c5ccccc5)N(CC)CC)[nH]4)cc3)cc2)[nH]1)c1ccccc1` [Example 21, (1R,1′R)-2,2′-(4,4′-biphenyldiylbis(1H-imidazole-5,2-diyl(2S)-2,1-pyrrolidinediyl))bis(N,N-diethyl-2-oxo-1-phenylethanamine)] fall in the same range of EC50: 0.001 to 0.999 nM for the first, 0.001 to 0.999 nM for the second.
